In the supplement of paper PMC13380429:

Legend:
Conditions in all cases: 72 h
Calu-3 [1] = experiment: drug sensitivity score (DSS) for viability; higher = more toxic; extreme values may be limits of the assay
U2OS [2] = experiment: as above
HepG2 [3] = experiment: as above
Vero E6 [4] = experiment: as above
Caco-2 [5] = experiment: as above
Calu-3 [6] = experiment: cell viability relative to DMSO; higher = less toxic
U2OS [7] = experiment: as above
HepG2 [8] = experiment: as above
Vero E6 [9] = experiment: as above
Caco-2 [10] = experiment: as above
Calu-3 [11] = experiment: relative viability EC50 (midpoint between 100% and the lowest measured viability); higher = less toxic
U2OS [12] = experiment: as above
HepG2 [13] = experiment: as above
Vero E6 [14] = experiment: as above
Caco-2 [15] = experiment: as above

Compound | drug sensitivity score (Calu-3 [1]) | drug sensitivity score (U2OS [2]) | drug sensitivity score (HepG2 [3]) | drug sensitivity score (Vero E6 [4]) | drug sensitivity score (Caco-2 [5]) | cell viability (Calu-3 [6]; 1 nM) [%] | cell viability (Calu-3 [6]; 10 nM) [%] | cell viability (Calu-3 [6]; 100 nM) [%] | cell viability (Calu-3 [6]; 1000 nM) [%] | cell viability (Calu-3 [6]; 10000 nM) [%] | cell viability (U2OS [7]; 1 nM) [%] | cell viability (U2OS [7]; 10 nM) [%] | cell viability (U2OS [7]; 100 nM) [%] | cell viability (U2OS [7]; 1000 nM) [%] | cell viability (U2OS [7]; 10000 nM) [%] | cell viability (HepG2 [8]; 1 nM) [%] | cell viability (HepG2 [8]; 10 nM) [%] | cell viability (HepG2 [8]; 100 nM) [%] | cell viability (HepG2 [8]; 1000 nM) [%] | cell viability (HepG2 [8]; 10000 nM) [%] | cell viability (Vero E6 [9]; 1 nM) [%] | cell viability (Vero E6 [9]; 10 nM) [%] | cell viability (Vero E6 [9]; 100 nM) [%] | cell viability (Vero E6 [9]; 1000 nM) [%] | cell viability (Vero E6 [9]; 10000 nM) [%] | cell viability (Caco-2 [10]; 1 nM) [%] | cell viability (Caco-2 [10]; 10 nM) [%] | cell viability (Caco-2 [10]; 100 nM) [%] | cell viability (Caco-2 [10]; 1000 nM) [%] | cell viability (Caco-2 [10]; 10000 nM) [%] | relative viability EC50 (Calu-3 [11]) [µM] | relative viability EC50 (U2OS [12]) [µM] | relative viability EC50 (HepG2 [13]) [µM] | relative viability EC50 (Vero E6 [14]) [µM] | relative viability EC50 (Caco-2 [15]) [µM]
N=C(N)SCc1ccc(B(O)O)cc1 [BC-11] | 0 | 0 | 0.4 | 0 | 0 | 92.3 | 101 | 105 | 107 | 99.6 | 102 | 102 | 98.8 | 97.1 | 97.1 | 107 | 99.7 | 99.8 | 88.6 | 92.8 | 108 | 96.6 | 97.9 | 101 | 99.8 | 102 | 101 | 96.1 | 108 | 92.4 | > 10 | > 10 | > 10 | > 10 | > 10
C[C@H](N)Cc1cccc(O)c1 [gepefrine] | 0 | 0 | 0 | 0 | 0 | 93.4 | 100 | 102 | 99.7 | 88.7 | 88 | 93.9 | 90.3 | 95 | 103 | 103 | 97.2 | 96.8 | 104 | 109 | 99.7 | 96 | 98.1 | 101 | 111 | 91.3 | 104 | 88 | 99.1 | 111 | > 10 | > 10 | > 10 | > 10 | > 10
CCCCOc1ccc(CC(=O)NO)cc1 [bufexamac] | 0 | 0 | 0 | 0.1 | 0 | 95.8 | 91.2 | 104 | 98.2 | 99.3 | 100 | 97.8 | 98.1 | 96 | 99 | 95 | 94.6 | 87.5 | 99.9 | 98.2 | 81.9 | 103 | 89.2 | 96.1 | 85.1 | 91.6 | 89.5 | 96.7 | 90.6 | 92.8 | > 10 | > 10 | > 10 | > 10 | > 10
O.O=[Si]=O.O=[Si]=O.O=[Si]=O.O=[Si]=O.[O]=[Mg].[O]=[Mg].[O]=[Mg] [Talc] | 0.2 | 0 | 0 | 0 | 0 | 87 | 98.1 | 89.8 | 107 | 81.3 | 96.7 | 98.3 | 95.9 | 100 | 95.3 | 106 | 95.1 | 106 | 95.4 | 96.7 | 95.7 | 104 | 103 | 97 | 103 | 97.2 | 102 | 94.7 | 101 | 90 | > 10 | > 10 | > 10 | > 10 | > 10
CCN(CC)c1ccc(/C=N/NC(=O)c2ccc(O)cc2)cc1 [DY131] | 0 | 0 | 0.2 | 0 | 0 | 95.4 | 91.5 | 99.8 | 97.8 | 95.3 | 99.6 | 97.5 | 101 | 95.4 | 97.6 | 102 | 105 | 95.9 | 105 | 83.4 | 107 | 98.3 | 101 | 102 | 95.1 | 94.3 | 96.4 | 98.4 | 95.4 | 98.2 | > 10 | > 10 | > 10 | > 10 | > 10
CCNCC(O)c1cccc(O)c1 (stereo not given) [etilefrine] | 0 | 0 | 0 | 0 | 0 | 99.2 | 102 | 98.9 | 102 | 104 | 98.9 | 103 | 98.1 | 98.9 | 95.7 | 95.2 | 87.3 | 89 | 93 | 104 | 97.1 | 93.6 | 98.3 | 96.4 | 99.6 | 92.1 | 105 | 93 | 99.7 | 104 | > 10 | > 10 | > 10 | > 10 | > 10
c1ccc(C(O[C@@H]2CCCN(CCc3ccc4c(c3)OCO4)C2)c2ccccc2)cc1 [zamifenacin] | 0 | 0 | 0 | 0 | 0 | 104 | 99.2 | 97 | 102 | 92.2 | 104 | 99.6 | 98.8 | 98.3 | 96 | 92.6 | 107 | 92.7 | 108 | 92.1 | 96.9 | 102 | 96.7 | 98.3 | 94.9 | 94.8 | 91.7 | 98.6 | 98.3 | 92.5 | > 10 | > 10 | > 10 | > 10 | > 10
COC(=O)C1=C(C)N(C)C(C)=C(C(=O)OC)C1c1ccc(C(F)(F)F)cc1 [BAY-W-9798] | 0 | 0 | 0 | 0 | 0 | 95.1 | 103 | 93.4 | 98.1 | 100 | 96.9 | 102 | 96.4 | 102 | 103 | 96.7 | 93.3 | 106 | 96.3 | 101 | 93.7 | 92.5 | 94.2 | 96.3 | 107 | 91.8 | 99.4 | 98.9 | 97.1 | 95.4 | > 10 | > 10 | > 10 | > 10 | > 10
O=C(O)c1nc(=O)[nH]c(=O)[nH]1 [oxonic-acid] | 0 | 0 | 0 | 0 | 0 | 94.6 | 106 | 105 | 110 | 108 | 102 | 101 | 99.6 | 102 | 106 | 105 | 103 | 97.4 | 115 | 101 | 89.2 | 63.8 | 98.5 | 79.8 | 90.7 | 87.9 | 76.3 | 89.9 | 112 | 101 | > 10 | > 10 | > 10 | > 10 | > 10
C[C@@H](O[C@H]1OCCN(Cc2nn(P(=O)(O)O)c(=O)[nH]2)[C@H]1c1ccc(F)cc1)c1cc(C(F)(F)F)cc(C(F)(F)F)c1 [fosaprepitant-dimeglumine] | 0 | 0.1 | 0.1 | 0 | 0 | 99.7 | 93.8 | 102 | 93.8 | 108 | 98.6 | 103 | 95.4 | 96.1 | 86.4 | 93.6 | 93.4 | 88.7 | 91.9 | 89.6 | 92.5 | 97.3 | 97.9 | 99.6 | 99.7 | 98.4 | 95.1 | 93.2 | 102 | 90.8 | > 10 | > 10 | > 10 | > 10 | > 10
OC[C@H]1O[C@H](O[C@H]2O[C@H](CO)[C@@H](O)[C@H](O)[C@H]2O)[C@H](O)[C@@H](O)[C@@H]1O [cabaletta] | 0 | 0 | 0 | 0 | 0 | 96.2 | 105 | 97.2 | 109 | 96.3 | 99.1 | 103 | 104 | 107 | 106 | 130 | 110 | 115 | 110 | 98.2 | 110 | 94.3 | 104 | 105 | 99.5 | 112 | 112 | 83.7 | 97.7 | 94.5 | > 10 | > 10 | > 10 | > 10 | > 10
Cc1nnc(C(=O)NC(C)(C)c2nc(C(=O)NCc3ccc(F)cc3)c(O)c(=O)n2C)o1 [raltegravir] | 0 | 0 | 0 | 0 | 0 | 104 | 99.3 | 99 | 107 | 104 | 104 | 95.9 | 100 | 97.5 | 100 | 100 | 102 | 97.6 | 118 | 90.3 | 101 | 99.3 | 95.7 | 97.5 | 94.4 | 102 | 104 | 94.4 | 94.7 | 99.7 | > 10 | > 10 | > 10 | > 10 | > 10
O=C(NCC1CCOCC1)c1cnc(Nc2ccc(Cl)cc2Cl)nc1C(F)(F)F | 0 | 0 | 0 | 0 | 0 | 104 | 107 | 100 | 99.4 | 105 | 96.5 | 102 | 96 | 95.5 | 93.2 | 105 | 102 | 102 | 99.2 | 112 | 99.8 | 91.9 | 94.8 | 93.1 | 98.9 | 104 | 99.3 | 113 | 104 | 101 | > 10 | > 10 | > 10 | > 10 | > 10
CC(=O)N[C@@H](Cc1c[nH]c2ccccc12)C(=O)OCc1cc(C(F)(F)F)cc(C(F)(F)F)c1 [L-732,138] | 0 | 0 | 0 | 0 | 0 | 95.4 | 102 | 92.6 | 103 | 102 | 96.7 | 94.7 | 97.4 | 94.4 | 99.2 | 91.1 | 106 | 105 | 104 | 105 | 89.1 | 97.3 | 86.3 | 95.3 | 109 | 91.7 | 92.8 | 96.4 | 97.5 | 92.8 | > 10 | > 10 | > 10 | > 10 | > 10
